Measured values published in ChEMBL document CHEMBL5291721, “A preclinical secondary pharmacology resource illuminates target-adverse drug reaction associations of marketed drugs” (Nat Commun, 2023).

Key:
[1] = biological target: Beta-1 adrenergic receptor (Homo sapiens, UniProt P08588); assay type: functional, cell-based
[2] = biological target: Gamma-aminobutyric acid receptor subunit alpha-1/alpha-2/beta-2/gamma-2 (Homo sapiens, UniProt P14867+P18507+P47869+P47870); assay type: functional, cell-based
Sequence of Gamma-aminobutyric acid receptor subunit alpha-1/alpha-2/beta-2/gamma-2 (P14867 whole entry): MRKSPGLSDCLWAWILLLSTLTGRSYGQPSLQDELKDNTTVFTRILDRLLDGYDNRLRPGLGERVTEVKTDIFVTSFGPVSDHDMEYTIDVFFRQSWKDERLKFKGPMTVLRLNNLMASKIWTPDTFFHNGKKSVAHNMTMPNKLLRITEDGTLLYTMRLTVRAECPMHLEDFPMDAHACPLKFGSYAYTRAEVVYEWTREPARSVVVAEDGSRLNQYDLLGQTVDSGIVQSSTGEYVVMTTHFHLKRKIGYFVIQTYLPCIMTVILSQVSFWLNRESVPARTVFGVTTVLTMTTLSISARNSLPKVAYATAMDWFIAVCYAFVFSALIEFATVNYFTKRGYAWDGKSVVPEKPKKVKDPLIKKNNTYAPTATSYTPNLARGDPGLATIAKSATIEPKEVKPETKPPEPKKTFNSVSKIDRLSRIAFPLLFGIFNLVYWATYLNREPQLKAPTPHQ
Sequence of Gamma-aminobutyric acid receptor subunit alpha-1/alpha-2/beta-2/gamma-2 (P47870 whole entry): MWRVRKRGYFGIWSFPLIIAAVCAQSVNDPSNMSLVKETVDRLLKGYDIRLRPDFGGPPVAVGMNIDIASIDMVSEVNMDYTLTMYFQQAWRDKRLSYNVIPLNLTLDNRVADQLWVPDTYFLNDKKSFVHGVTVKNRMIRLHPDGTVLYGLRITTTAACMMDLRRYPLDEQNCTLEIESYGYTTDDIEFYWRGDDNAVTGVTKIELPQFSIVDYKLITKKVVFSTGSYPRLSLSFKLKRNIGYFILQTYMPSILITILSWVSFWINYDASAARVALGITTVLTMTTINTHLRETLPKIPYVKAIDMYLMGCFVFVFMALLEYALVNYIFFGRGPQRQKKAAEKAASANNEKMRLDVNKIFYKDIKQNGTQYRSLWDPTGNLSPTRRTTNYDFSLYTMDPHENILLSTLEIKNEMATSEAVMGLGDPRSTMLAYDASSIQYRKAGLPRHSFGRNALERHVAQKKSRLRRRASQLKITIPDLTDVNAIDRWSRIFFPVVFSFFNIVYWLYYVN
Sequence of Gamma-aminobutyric acid receptor subunit alpha-1/alpha-2/beta-2/gamma-2 (P18507 whole entry): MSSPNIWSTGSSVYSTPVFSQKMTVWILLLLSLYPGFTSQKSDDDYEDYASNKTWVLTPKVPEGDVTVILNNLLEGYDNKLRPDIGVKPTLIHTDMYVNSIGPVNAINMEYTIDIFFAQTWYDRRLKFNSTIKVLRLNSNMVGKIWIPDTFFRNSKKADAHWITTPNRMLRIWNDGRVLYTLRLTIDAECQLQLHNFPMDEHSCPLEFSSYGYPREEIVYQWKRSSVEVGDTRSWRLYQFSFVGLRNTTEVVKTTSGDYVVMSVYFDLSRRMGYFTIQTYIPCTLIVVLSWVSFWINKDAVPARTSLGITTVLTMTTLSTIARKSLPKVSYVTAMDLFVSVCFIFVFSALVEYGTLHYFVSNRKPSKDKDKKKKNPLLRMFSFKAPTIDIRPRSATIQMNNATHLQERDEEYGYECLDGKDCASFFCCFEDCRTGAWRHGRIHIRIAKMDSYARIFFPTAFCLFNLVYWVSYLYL
Sequence of Gamma-aminobutyric acid receptor subunit alpha-1/alpha-2/beta-2/gamma-2 (P47869 whole entry): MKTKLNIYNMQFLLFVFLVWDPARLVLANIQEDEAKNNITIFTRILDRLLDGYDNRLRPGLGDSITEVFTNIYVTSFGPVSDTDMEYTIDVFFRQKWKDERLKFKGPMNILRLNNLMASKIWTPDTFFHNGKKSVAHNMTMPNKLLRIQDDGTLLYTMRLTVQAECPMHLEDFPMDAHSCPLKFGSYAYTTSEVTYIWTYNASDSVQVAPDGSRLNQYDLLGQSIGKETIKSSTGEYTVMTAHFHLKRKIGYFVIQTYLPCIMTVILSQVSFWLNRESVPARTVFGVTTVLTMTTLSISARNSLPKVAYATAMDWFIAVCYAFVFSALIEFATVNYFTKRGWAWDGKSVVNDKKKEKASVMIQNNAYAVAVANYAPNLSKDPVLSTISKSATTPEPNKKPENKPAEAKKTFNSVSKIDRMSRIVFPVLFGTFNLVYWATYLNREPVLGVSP

Cannabinoid receptor 1 = Cannabinoid receptor 1 (Homo sapiens, UniProt P21554); assay type: functional
Sequence of Cannabinoid receptor 1 (P21554 whole entry): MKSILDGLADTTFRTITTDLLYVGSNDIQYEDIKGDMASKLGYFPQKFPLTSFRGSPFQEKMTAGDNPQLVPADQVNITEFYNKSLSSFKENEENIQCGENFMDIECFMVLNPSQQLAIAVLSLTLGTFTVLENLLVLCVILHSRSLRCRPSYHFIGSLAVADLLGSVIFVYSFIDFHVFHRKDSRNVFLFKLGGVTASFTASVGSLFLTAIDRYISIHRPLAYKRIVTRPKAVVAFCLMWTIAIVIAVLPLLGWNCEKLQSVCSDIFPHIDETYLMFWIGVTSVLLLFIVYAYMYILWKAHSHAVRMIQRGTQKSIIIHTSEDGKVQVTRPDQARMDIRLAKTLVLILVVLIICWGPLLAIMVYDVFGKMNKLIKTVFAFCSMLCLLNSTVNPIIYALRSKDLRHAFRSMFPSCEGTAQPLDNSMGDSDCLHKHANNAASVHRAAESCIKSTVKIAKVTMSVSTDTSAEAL

[3] = biological target: 5-hydroxytryptamine receptor 6 (Homo sapiens, UniProt P50406)
Sequence of 5-hydroxytryptamine receptor 6 (P50406 whole entry): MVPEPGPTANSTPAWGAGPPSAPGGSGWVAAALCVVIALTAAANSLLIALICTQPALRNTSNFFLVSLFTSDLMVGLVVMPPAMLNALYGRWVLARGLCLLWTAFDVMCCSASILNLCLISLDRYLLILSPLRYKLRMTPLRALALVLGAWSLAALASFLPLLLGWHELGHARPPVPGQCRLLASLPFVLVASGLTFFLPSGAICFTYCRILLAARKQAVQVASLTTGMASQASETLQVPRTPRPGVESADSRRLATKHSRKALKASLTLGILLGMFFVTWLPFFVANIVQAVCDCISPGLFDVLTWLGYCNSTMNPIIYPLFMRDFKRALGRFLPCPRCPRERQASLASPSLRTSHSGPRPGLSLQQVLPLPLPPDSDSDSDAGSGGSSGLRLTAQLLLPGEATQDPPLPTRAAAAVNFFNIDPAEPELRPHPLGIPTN

Substance-P receptor = Substance-P receptor (Homo sapiens, UniProt P25103)
Sequence of Substance-P receptor (P25103 whole entry): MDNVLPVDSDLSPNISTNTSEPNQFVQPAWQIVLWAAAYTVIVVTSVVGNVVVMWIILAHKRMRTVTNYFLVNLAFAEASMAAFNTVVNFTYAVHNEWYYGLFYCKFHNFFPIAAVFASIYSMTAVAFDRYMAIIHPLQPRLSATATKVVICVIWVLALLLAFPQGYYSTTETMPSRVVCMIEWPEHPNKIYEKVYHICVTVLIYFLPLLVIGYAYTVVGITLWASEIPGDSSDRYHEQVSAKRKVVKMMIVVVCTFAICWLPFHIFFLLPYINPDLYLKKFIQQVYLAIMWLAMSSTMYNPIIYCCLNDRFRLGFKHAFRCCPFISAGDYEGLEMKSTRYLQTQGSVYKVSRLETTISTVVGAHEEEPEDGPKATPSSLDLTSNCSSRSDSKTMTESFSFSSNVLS

[4] = biological target: Gamma-aminobutyric acid type B receptor subunit 1 (Homo sapiens, UniProt Q9UBS5)
Sequence of Gamma-aminobutyric acid type B receptor subunit 1 (Q9UBS5 whole entry): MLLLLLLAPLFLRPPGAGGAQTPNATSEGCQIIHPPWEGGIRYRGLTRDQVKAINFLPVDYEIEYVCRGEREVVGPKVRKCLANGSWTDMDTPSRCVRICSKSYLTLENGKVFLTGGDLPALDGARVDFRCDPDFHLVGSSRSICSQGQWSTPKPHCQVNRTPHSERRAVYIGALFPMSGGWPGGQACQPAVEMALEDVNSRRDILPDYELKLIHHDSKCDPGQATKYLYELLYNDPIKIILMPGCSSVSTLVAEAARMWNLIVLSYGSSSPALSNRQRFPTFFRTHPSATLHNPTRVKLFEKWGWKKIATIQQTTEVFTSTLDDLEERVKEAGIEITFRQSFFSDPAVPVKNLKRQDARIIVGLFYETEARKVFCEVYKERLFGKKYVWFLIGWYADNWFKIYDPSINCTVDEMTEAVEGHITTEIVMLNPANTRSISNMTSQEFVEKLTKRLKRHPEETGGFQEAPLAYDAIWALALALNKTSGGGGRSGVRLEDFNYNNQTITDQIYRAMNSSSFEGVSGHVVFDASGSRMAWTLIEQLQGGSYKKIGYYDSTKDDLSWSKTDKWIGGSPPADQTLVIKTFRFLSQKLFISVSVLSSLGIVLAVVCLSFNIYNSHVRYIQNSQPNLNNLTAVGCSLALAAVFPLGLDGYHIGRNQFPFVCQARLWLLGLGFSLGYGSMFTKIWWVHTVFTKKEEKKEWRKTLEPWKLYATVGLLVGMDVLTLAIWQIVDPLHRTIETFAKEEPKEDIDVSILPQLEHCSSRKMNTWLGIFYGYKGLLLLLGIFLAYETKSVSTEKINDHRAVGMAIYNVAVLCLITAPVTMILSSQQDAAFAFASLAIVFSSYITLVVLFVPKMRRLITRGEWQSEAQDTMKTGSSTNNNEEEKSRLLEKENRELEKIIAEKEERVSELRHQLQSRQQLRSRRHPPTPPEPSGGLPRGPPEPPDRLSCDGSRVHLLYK

D(1A) dopamine receptor [5] = biological target: T1, D(1A) dopamine receptor (Homo sapiens, UniProt P21728)
T1 sequence (P21728 whole entry): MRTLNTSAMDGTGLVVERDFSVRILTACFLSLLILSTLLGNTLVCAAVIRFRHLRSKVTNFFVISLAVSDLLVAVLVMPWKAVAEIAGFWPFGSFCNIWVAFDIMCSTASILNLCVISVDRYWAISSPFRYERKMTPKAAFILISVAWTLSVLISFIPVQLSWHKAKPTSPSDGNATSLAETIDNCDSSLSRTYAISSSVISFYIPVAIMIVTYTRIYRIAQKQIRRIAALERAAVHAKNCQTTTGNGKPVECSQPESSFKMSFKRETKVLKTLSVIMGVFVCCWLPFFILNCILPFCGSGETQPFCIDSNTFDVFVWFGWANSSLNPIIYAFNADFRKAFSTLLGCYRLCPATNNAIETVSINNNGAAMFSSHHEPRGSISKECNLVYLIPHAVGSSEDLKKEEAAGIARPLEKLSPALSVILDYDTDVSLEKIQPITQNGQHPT

[6] = biological target: 5-hydroxytryptamine receptor 5A (Homo sapiens, UniProt P47898)
[7] = biological target: T2, Muscarinic acetylcholine receptor M1 (Homo sapiens, UniProt P11229)
T2 sequence (P11229 whole entry): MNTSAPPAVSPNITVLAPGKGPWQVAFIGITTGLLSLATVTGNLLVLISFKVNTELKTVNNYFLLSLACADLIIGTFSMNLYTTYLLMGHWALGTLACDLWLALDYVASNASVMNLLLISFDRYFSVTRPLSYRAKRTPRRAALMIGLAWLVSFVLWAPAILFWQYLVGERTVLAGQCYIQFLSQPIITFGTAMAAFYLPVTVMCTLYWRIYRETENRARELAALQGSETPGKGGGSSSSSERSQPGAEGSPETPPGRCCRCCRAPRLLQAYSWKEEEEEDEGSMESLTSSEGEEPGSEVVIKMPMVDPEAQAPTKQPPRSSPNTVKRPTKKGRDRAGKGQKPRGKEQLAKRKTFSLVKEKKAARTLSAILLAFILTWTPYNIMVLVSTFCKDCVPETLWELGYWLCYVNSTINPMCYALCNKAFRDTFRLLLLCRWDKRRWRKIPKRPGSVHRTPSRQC

Substance-K receptor = biological target: T3, Substance-K receptor (Homo sapiens, UniProt P21452)
T3 sequence (P21452 whole entry): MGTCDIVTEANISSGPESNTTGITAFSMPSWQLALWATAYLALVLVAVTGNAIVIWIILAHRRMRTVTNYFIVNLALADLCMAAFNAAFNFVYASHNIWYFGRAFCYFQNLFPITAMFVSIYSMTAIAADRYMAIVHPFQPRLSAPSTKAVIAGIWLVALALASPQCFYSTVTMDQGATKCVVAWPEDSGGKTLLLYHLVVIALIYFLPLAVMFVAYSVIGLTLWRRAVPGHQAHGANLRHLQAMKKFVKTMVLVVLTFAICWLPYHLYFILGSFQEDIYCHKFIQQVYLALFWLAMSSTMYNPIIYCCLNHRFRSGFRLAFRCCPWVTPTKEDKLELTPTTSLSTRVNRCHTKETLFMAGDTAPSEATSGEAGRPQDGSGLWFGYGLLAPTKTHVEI

[8] = biological target: T4, Alpha-1A adrenergic receptor (Homo sapiens, UniProt P35348)
T4 sequence (P35348 whole entry): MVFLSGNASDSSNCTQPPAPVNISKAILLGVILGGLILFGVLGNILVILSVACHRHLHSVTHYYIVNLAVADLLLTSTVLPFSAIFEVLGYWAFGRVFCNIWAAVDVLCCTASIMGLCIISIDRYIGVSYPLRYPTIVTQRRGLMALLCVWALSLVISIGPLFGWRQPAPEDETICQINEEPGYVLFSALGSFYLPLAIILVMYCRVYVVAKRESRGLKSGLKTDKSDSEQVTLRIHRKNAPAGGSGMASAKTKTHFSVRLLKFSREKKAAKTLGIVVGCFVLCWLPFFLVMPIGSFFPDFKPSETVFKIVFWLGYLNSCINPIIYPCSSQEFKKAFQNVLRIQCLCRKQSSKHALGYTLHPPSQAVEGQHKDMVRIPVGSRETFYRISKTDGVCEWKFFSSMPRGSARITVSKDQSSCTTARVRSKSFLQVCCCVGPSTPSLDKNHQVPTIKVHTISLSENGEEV

[9] = biological target: Rod cGMP-specific 3',5'-cyclic phosphodiesterase subunit alpha (Homo sapiens, UniProt P16499); assay type: functional
[10] = biological target: T5, Corticotropin-releasing factor receptor 1 (Homo sapiens, UniProt P34998)
T5 sequence (P34998 whole entry): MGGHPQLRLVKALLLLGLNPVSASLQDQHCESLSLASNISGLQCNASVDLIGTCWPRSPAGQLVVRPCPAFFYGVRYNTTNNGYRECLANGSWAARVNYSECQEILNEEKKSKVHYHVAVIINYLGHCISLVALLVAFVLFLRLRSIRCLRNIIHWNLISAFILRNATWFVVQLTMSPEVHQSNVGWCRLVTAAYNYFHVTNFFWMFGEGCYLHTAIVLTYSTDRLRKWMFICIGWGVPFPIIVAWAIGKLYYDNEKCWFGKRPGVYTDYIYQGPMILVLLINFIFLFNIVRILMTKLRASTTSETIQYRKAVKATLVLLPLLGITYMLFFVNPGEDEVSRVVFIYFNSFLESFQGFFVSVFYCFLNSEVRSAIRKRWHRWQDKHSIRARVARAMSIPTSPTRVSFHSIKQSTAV

[11] = biological target: Hydroxycarboxylic acid receptor 2 (Homo sapiens, UniProt Q8TDS4)
Sequence of Hydroxycarboxylic acid receptor 2 (Q8TDS4 whole entry): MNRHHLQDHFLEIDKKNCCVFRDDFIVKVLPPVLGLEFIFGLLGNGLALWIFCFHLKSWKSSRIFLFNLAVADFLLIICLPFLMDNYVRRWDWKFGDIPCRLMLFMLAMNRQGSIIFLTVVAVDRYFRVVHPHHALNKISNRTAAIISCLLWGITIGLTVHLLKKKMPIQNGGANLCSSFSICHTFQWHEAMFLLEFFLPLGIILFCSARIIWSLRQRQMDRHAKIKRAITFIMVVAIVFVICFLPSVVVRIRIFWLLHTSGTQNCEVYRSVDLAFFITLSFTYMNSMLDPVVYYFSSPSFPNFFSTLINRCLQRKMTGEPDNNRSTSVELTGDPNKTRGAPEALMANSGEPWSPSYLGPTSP

[12] = biological target: Synaptic vesicular amine transporter (Rattus norvegicus, UniProt Q01827); assay type: functional
D(1A) dopamine receptor [13] = biological target: T1, D(1A) dopamine receptor; assay type: functional, cell-based
Also: assay procedure not described here.

C[N+](C)(C)CCOP(=O)([O-])OC[C@H](O)CO
AC50 [1]: > 30 µM

CN(C)C/C=C/C(=O)Nc1cc2c(Nc3ccc(F)c(Cl)c3)ncnc2cc1O[C@H]1CCOC1 [AFATINIB]
AC50 [2]: > 30 µM

O=C(/C=C/c1cccc(S(=O)(=O)Nc2ccccc2)c1)NO [BELINOSTAT]
AC50 (Cannabinoid receptor 1): > 10 µM | AC50 [3]: 2.47 µM | AC50 (Substance-P receptor): > 10 µM | AC50 [4]: > 10 µM | AC50 (D(1A) dopamine receptor [5]): > 30 µM | AC50 [6]: > 10 µM | AC50 [7]: > 30 µM | AC50 (Substance-K receptor): > 10 µM | AC50 [8]: > 30 µM | AC50 [9]: > 10 µM

CC(O)(CS(=O)(=O)c1ccc(F)cc1)C(=O)Nc1ccc(C#N)c(C(F)(F)F)c1 (centres undefined) [BICALUTAMIDE]
AC50 (Cannabinoid receptor 1): > 10 µM | AC50 [3]: > 10 µM | AC50 (Substance-P receptor): > 10 µM | AC50 [4]: > 10 µM | AC50 [10]: > 30 µM

O=C(O)COCCN1CCN(C(c2ccccc2)c2ccc(Cl)cc2)CC1 (centres undefined) [CETIRIZINE]
AC50 (Substance-P receptor): > 10 µM | AC50 [10]: > 30 µM | AC50 [11]: > 10 µM

NC[C@H]1CC[C@H](C(=O)Oc2ccc(CCC(=O)O)cc2)CC1 [CETRAXATE]
AC50 (D(1A) dopamine receptor [5]): > 30 µM | AC50 [8]: > 30 µM

CN[C@]1(c2ccccc2Cl)CCCCC1=O [ESKETAMINE]
AC50 [12]: > 30 µM

C[C@@H]1C[C@H]2[C@@H]3C[C@H](F)C4=CC(=O)C=C[C@]4(C)[C@@]3(F)[C@@H](O)C[C@]2(C)[C@@]1(OC(=O)c1ccco1)C(=O)SCF [FLUTICASONE FUROATE]
AC50 (Cannabinoid receptor 1): > 10 µM | AC50 [3]: > 10 µM | AC50 [4]: > 10 µM | AC50 (Substance-K receptor): > 10 µM

CNCCc1ccc(OC(=O)C(C)C)c(OC(=O)C(C)C)c1 [IBOPAMINE]
AC50 [2]: > 30 µM | AC50 (D(1A) dopamine receptor [13]): > 30 µM | AC50 [1]: > 30 µM

CN(C)CCCN1c2ccccc2CCc2ccccc21 [IMIPRAMINE]
AC50 (Cannabinoid receptor 1): > 10 µM | AC50 [3]: 0.313 µM | AC50 (Substance-P receptor): > 10 µM | AC50 [10]: > 30 µM | AC50 [6]: 2.26 µM | AC50 [12]: 11.4 µM | AC50 (Substance-K receptor): > 10 µM | AC50 [9]: > 10 µM

COC(=O)C1=C(C)NC(C)=C(C(=O)OCCN2CCN(C(c3ccccc3)c3ccccc3)CC2)C1c1cccc([N+](=O)[O-])c1 (centres undefined) [MANIDIPINE 6300]
AC50 [1]: > 30 µM

CN(Cc1cnc2nc(N)nc(N)c2n1)c1ccc(C(=O)N[C@@H](CCC(=O)O)C(=O)O)cc1 [METHOTREXATE]
AC50 [10]: > 30 µM

OC[C@H]1O[C@@H](n2cnc3c2NC=NC[C@H]3O)C[C@@H]1O [PENTOSTATIN]
AC50 [2]: > 30 µM

CC(C)c1cccc(C(C)C)c1O [PROPOFOL]
AC50 (D(1A) dopamine receptor [13]): > 30 µM

CN[C@@H](C)[C@@H](O)c1ccccc1 [PSEUDOEPHEDRINE]
AC50 (Substance-P receptor): > 10 µM | AC50 [10]: > 30 µM | AC50 [11]: > 10 µM

CCCN1CC(NS(=O)(=O)N(CC)CC)CC2Cc3c(O)cccc3CC21 (centres undefined) [QUINAGOLIDE]
AC50 [1]: > 30 µM

O=C1OC(OC(=O)c2cccnc2Nc2cccc(C(F)(F)F)c2)c2ccccc21 (centres undefined) [TALNIFLUMATE]
AC50 [2]: > 30 µM

O=S1(=O)CCN(CN2CCS(=O)(=O)NC2)CN1 [TAUROLIDINE]
AC50 (D(1A) dopamine receptor [5]): > 30 µM | AC50 [2]: > 30 µM | AC50 [7]: > 30 µM | AC50 [8]: > 30 µM

COc1ccc2c(C(=S)N(C)CC(=O)O)cccc2c1C(F)(F)F [TOLRESTAT]
AC50 (D(1A) dopamine receptor [5]): > 30 µM | AC50 [7]: > 30 µM | AC50 [8]: > 30 µM
